Paper PMC6337588, “Multi-Target Cinnamic Acids for Oxidative Stress and Inflammation: Design, Synthesis, Biological Evaluation and Modeling Studies” (Molecules, 2018)
Values joined by “and” are separate entries in the source; they are usually repeats but may differ in a detail not shown here. Equal entries are not always repeated.

Legend:
[1] = Experimental lipophilicity as RM values by reversed phase TLC (RPTLC); type: physicochemical; conditions: methanol/water 77/23 with 0.1% acetic acid, 24 °C, average of at least 5 measurements
Text: Lipophilicity is a physicochemical property correlated with the biological activity. Lipophilicity influences ligand-target binding interactions, solubility, absorption, distribution, bioavailability, metabolism and elimination (ADME) and toxicological outcomes. The lipophilicity of the novel cinnamic acids was experimentally measured as RM values using a reverse phase thin layer chromatography (RPTLC) method. This is acknowledged as a reliable, fast and convenient approach for expressing lipophilicity (Table 1). RM relates to the thermodynamic Rf value in a logarithmic form. Bate-Smith and Westall firstly determined lipophilicity as RM values in 1950 [31]. The Br-substituted derivatives 1i–7i are more lipophilic than the OH-substituted ones 1ii–7ii which can be easily explained by their structural characteristics.
Reversed phase TLC (RPTLC) was performed on silica gel plates impregnated with 55% (v/v) liquid paraffin in light petroleum ether. The mobile phase was a methanol/water mixture (77/23, v/v) containing 0.1% of acetic acid. The plates were developed in closed chromatography tanks saturated with the mobile phase at 24 °C. Spots were detected under UV light. RM values were determined from the corresponding Rf values (from five individual measurements) using the equation RM = log[(1/Rf) − 1] [17, 18, 28].

soybean lipoxygenase = molecular target: T1, soybean lipoxygenase (Glycine max, UniProt P08170); test: Soybean lipoxygenase inhibition in vitro; type: biochemical; conditions: sodium linoleate 0.1 mM, 234 nm, read-out: LOX IC50
T1 construct: purchased Sigma Chemical, Co. (St. Louis)
T1 sequence (P08170 1-839): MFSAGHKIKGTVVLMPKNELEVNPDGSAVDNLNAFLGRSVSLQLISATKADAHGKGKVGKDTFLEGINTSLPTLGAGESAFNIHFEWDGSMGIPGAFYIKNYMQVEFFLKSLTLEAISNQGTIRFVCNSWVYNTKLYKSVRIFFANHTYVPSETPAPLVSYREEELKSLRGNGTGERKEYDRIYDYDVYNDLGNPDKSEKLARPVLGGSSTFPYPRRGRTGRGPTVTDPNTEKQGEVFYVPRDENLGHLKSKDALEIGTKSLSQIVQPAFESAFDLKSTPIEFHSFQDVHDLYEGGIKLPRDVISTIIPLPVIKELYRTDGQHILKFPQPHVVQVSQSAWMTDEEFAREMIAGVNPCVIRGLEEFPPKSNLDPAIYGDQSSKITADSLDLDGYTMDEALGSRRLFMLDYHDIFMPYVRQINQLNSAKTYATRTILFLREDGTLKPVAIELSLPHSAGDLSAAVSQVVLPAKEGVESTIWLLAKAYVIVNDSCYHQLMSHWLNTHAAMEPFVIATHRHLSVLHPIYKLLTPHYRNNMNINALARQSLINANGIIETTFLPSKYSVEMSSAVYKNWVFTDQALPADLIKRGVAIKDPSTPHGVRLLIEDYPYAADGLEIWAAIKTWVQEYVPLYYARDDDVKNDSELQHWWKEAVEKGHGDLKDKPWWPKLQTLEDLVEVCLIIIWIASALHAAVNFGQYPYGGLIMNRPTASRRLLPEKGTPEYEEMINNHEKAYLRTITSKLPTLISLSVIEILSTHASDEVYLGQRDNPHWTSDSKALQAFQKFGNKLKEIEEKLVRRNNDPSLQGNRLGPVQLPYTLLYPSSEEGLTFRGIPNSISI
Method: Many research groups have used readily obtainable soybean lipoxygenase, which is a homologue of mammalian lipoxygenase and well studied. Due to its availability and its well-characterised crystal structure, soybean LOX was selected to be used in this study.
In vitro study was evaluated as reported previously by our group. The tested compounds were incubated at room temperature with sodium linoleate (0.1 mM) and 0.2 mL of enzyme solution (1/9 × 104 w/v in saline). The method was based to the conversion of sodium linoleate to 13-hydroperoxylinoleic acid at 234 nm. […] In order to determine the IC50 values different concentrations were used.

[2] = Reducing activity of the stable radical DPPH; type: biochemical
Method: The substituted acids were monitored for the antioxidant activity by the use of the stable 2,2-diphenyl-1-picrylhydrazyl radical (DPPH) at concentration 50 µM and 100 µM after 20 and 60 min (Table 1). In this assay the DPPH radical is reduced by single electron transfer from the antioxidant. Strong antioxidants are the phenoxide anions from phenolic compounds like catechol and derivatives, such as nordihydroguaretic acid (NDGA), the reference compound. The compounds presented medium reducing abilities from 29–61%, due to steric reasons; small differences were found among the compounds with time and concentration. 4-Br-substituted-3 phenyl acetic acid derivatives (Series I) are equipotent to 4-OH-substituted-3 phenyl acetic acid derivatives (Series II). No differences were observed between 4i and 5i and 4ii and 5ii.
To a solution of DPPH in absolute ethanol an equal volume of the compounds dissolved in DMSO was added. The final concentrations of the measured solutions of the novel acids were 50 and 100 µM starting from a stock solution (10 mM) in DMSO. The absorbance was recorded at 517 nm, after 20 and 60 min at room temperature (Table 1).

[3] = Competition with DMSO for hydroxyl radicals (Fe3+/ascorbic acid system); type: biochemical; conditions: hydroxyl radical scavenging
Method: Competition of the novel substituted acids with DMSO for hydroxyl radicals was measured. Hydroxyl radicals were generated using the Fe^3+/ascorbic acid system and expressed as a percentage inhibition of formaldehyde production in the presence of each compound at 100 μM (Table 2). All the synthesized derivatives strongly scavenge hydroxyl radicals at 100 μM in comparison to the reference compound Trolox.
The hydroxyl radicals generated by the Fe^3+/ascorbic acid system, were detected by the determination of formaldehyde produced from the oxidation of DMSO (Table 2). Trolox was used as reference compound [17, 18, 28].

[4] = Non enzymatic assay of superoxide radical scavenging activity (PMS/NADH/NBT); type: biochemical
Method: Superoxide radical is a main cause of oxidative stress, expressing its biological toxicity by the inactivation of iron-sulfur cluster containing enzymes. The superoxide anion radical (O2^−^•) is less toxic than the hydroxyl radical, but still being one of the most known toxic reactive oxygen species (ROS). In this assay the superoxide anion radicals were generated by a non-enzymatically assay and the compounds are tested at 100 μM final concentration (Table 2). Caffeic acid (CA) has been used as a reference compound. Compound 4ii presented the highest activity, followed by compound 3ii. We succeeded to derive a quantitative-structure activity relationship model for this activity in which the topological polar surface (TPAS) of the compounds seem to govern the superoxide anion scavenging activity:% Superoxide Anion Scavenging Activity (100 µM) = 0.019 (±0.007) TPSA + 0.813 (±0.358) n = 6, r = 0.962, r^2 = 0.926, q^2 = 0.694, s = 0.122, Q = 7.885, F1,6 = 3.701, α = 0.1 clog P vs. TPSA 0.
The superoxide radicals are generated by mixing N-methylphenazonium methyl sulfate (PMS), NADH and air–oxygen and determined by the nitroblue tetrazolium method and measured at 560 nm (Table 2). Caffeic acid was used as reference compound [17, 18, 28].

[5] = ABTS+• decolorization assay; type: biochemical; conditions: 1 min, 734 nm
Method: No role for lipophilicity was found. Oxidation of ABTS with potassium persulfate generates directly the ABTS radical cation (ABTS^+•) with no involvement of an intermediary radical, which is then reduced upon adding electron-donating antioxidants.
In order to produce the ABTS radical cation (ABTS^+•), ABTS stock solution in water (7 mM) was mixed with potassium persulfate (2.45 mM) and left in the dark at room temperature for 12–16 h before use. Our published experimental technique was used (Table 2). The results are recorded after 1 min of the mixing solutions at 734 nm. The results were compared to the appropriate standard inhibitor Trolox.

[6] = Inhibition of linoleic acid peroxidation (AAPH); type: biochemical; conditions: anti-lipid peroxidation
Text: We also used water-soluble 2,2′-[…](2-amidinopropane) hydrochloride (AAPH) for the generation of free radicals. AAPH has been extensively used as a clean and controllable source of thermally produced alkylperoxyl free radicals. The peroxyl radicals produced by the action of AAPH show total similarity to cellular activities such as lipid peroxidation. […] It seems that the presence of 3,5-di-tert-butyl-group greatly enhances protection against lipid peroxidation (6i/ii and 7i/ii followed by 3ii and 5ii). The lipid peroxidation inhibitory activity seems to be concentration dependent.
2,2’-Azobis(2-amidinopropane) dihydrochloride (AAPH) was used as a free radical initiator to start the oxidation reaction. The method was based on the production of conjugated diene hydroperoxide by oxidation of linoleic acid at 234 nm expressed as an increased absorption. Trolox was used as reference compound (93%) (Table 2).

- RM (±SD) [1]: −0.537 (0.002)
- IC50 (soybean lipoxygenase): 91.5 µM
- melting point: 105 to 107 °C
Structure (SMILES): O=C(O)C(=Cc1cccc(Oc2ccccc2)c1)c1ccc(O)cc1 [Compound 1ii, 2-(4-Hydroxyphenyl)-3-(3-phenoxyphenyl)acrylic acid]
- RA% 50 µM 20 min ([2]; 50 µM, 20 min): 40%
- RA% 50 µM 60 min ([2]; 50 µM, 60 min): 39%
- RA% 100 µM 20 min ([2]; 100 µM, 20 min): 45%
- RA% 100 µM 60 min ([2]; 100 µM, 60 min): 47%
- HO•% 100 µM [3]: 100%
- O2−•% 100 µM [4]: 8%
- ABTS+•% 100 µM [5]: 83.4% and 83%
- AAPH% 50 µM ([6]; 50 µM): 22%
- AAPH% 100 µM ([6]; 100 µM): 94%
